System: non-lung cells
Assay: Comparison of delivery vehicles: luminescence in non-lung cells following pulmonary delivery
Type: in vivo
Conditions: following pulmonary delivery of FFL mRNA with the delivery vehicle

CCCCCCCC/C=C\CCCCCCCC(=O)OCC(C[N+](C)(C)C)OC(=O)CCCCCCC/C=C\CCCCCCCC (stereo not shown) [DOTAP, 1,2-Dioleoyl-3-Trimethylammonium-Propane]
Luminescence / protein production in non-lung cells: did not show luminescence in non-lung cells
